Reference: ChEMBL document CHEMBL3880396, “Calcium channel inhibitors comprising benzhydril spaced from piperazine” (2004)

Tests used:
[1] = Selectivity ratio of IC50 for alpha1C/alpha2delta/beta1b L-type calcium channel (unknown origin) to IC50 for rat brain […] N-type calcium channel
[2] = Selectivity ratio of IC50 for alpha1A/alpha2delta/beta1b P/Q-type calcium channel (unknown origin) to IC50 for rat brain […] N-type calcium channel

Row | Ratio IC50 [1] | Ratio IC50 [2] | Compound
1 | 831 | 28 | O=C(CC(c1ccccc1)c1ccccc1)N1CCN(C(c2ccccc2)c2ccc(Cl)cc2)CC1 (configuration not stated)
2 | 103 | 5.1 | O=C(CC(c1ccccc1)c1ccccc1)N1CCN(C(c2ccccc2)c2ccc(C(F)(F)F)cc2)CC1 (configuration not stated)

Continued, compound first:

Row | Compound | Ratio IC50 [1] | Ratio IC50 [2]
3 | CCOC(=O)C1CN(C(c2ccccc2)c2ccccc2)CCN1C(=O)CC(c1ccccc1)c1ccccc1 (configuration not stated) | 2880 | 69
4 | CC(C)(C)c1cc(C(c2ccccc2)N2CCN(C(=O)CC(c3ccccc3)c3ccccc3)CC2)cc(C(C)(C)C)c1O (configuration not stated) | > 40 | > 40
5 | COc1ccc(C(c2ccc(C(F)(F)F)cc2)N2CCN(C(=O)CC(c3ccccc3)c3ccccc3)CC2)cc1 (configuration not stated) | > 54 | 41
6 | O=C(O)C1CN(C(c2ccccc2)c2ccccc2)CCN1C(=O)CC(c1ccccc1)c1ccccc1 (configuration not stated) | 103 | 9.4
